Laboratory results from US20230069722A1, “TUBULYSINS AND PROTEIN-TUBULYSIN CONJUGATES” (priority 2020, published 2023).
Like-named read-outs stand apart in the source and are kept apart here.

System: HCT15 cells
Experiment: MDR cell based killing assay, HCT15 cells with or without Verapamil (CellTiter-Glo)
Design: species or system human
Conditions: Homo sapiens
Description: To test the ability of the disclosed tubulysin payloads or prodrug payloads to kill human cell lines, an in vitro cytotoxicity assay can be performed. In vitro cytotoxicity of the disclosed payloads, as well as reference compounds, are evaluated using the CellTiter-Glo Assay Kit (Promega, Cat # G7573), in which the quantity of ATP present is used to determine the number of viable cells in culture. For the assay, C4-2, HEK293, or T47D cells are seeded at 4000 cells/well on Nunclon white 96-well plates in complete growth medium (DME high glucose:Ham's F12 at 4:1, 10% FBS, 100 units/ml Penicillin, 100 ug/ml streptomycin, 53 ug/ml glutatmine, 10 ug/ml insulin, 220 ng/ml biotin, 12.5 pg/ml T3, 12.5 ug/ml Adenine, 4 ug/ml transferrin for C42 cells; DME high glucose, 10% FBS, 100 units/ml Penicillin, 100 ug/ml streptomycin, 53 ug/ml glutatmine for HEK293; RPMI, 10% FBS, 100 units/ml Penicillin, 100 ug/ml streptomycin, 53 ug/ml glutatmine, 10 ug/ml insulin, 10 mM HEPEs, 200 nM Sodium Pyruvate for T47D cells) and grown overnight at 37° C. in 5% CO2. For cell viability curves, 1:3 serially diluted payloads are added to the cells at final concentrations ranging from 100 nM to 15 pM, including a no treatment control group, and are then incubated for 5 days. After the 5-day incubation, cells are incubated at room temperature with 100 μL of CellTiter-Glo reagents for 10 minutes. Relative luminescence units (RLU) can be determined on a Victor plate reader (PerkinElmer). The IC50 values are determined from a four-parameter logistic equation over a 10-point response curve (GraphPad Prism). All IC50 values are expressed in molar (M) concentration. The percent cell killing (% kill) at the maximum concentration tested is estimated from the following formula (100−% viable cells). Averages±standard deviation (SD) can be included where replicate experiments are performed.
In vitro cytotoxicity of the disclosed payloads as well as reference compounds are evaluated similarly as described above except using 1000 HCT15 cells, a colorectal carcinoma cell line, in growth medium (RPMI, 10% FBS, 100 units/ml Penicillin, 100 ug/ml streptomycin, 53 ug/ml glutatmine) with or without 5 ug/mL of Verapamil.
For each payload or prodrug payload, the HCT-15 IC50 in the absence of Verapamil is divided by the HCT-15 IC50 in the presence of Verapamil (HCT-15 IC50/HCT-15+Verapamil IC50). […] The reference compound, (MMAE), can have a ratio of 23.7. […]

[1] = HCT-15, read-out: HCT-15 with verapamil IC50

SMILES | IC50 (HCT-15, read-out: HCT-15 IC50) | IC50 [1]
CCCCCCN(C(=O)[C@@H](NC(=O)[C@H]1CCCCN1)[C@@H](C)CC)[C@H](C[C@@H](OC(C)=O)c1nc(C(=O)N[C@@H](Cc2ccc(N)cc2)CC(C)(C)C(=O)O)cs1)C(C)C [Compound P18, (4S)-4-({2-[(1R,3R)-1-(acetyloxy)-3-[(2S,3S)—N-hexyl-3-methyl-2-[(2R)-piperidin-2-ylformamido]pentanamido]-4-methylpentyl]-1,3-thiazol-4-yl}formamido)-5-(4-aminophenyl)-2,2-dimethylpentanoic Acid] | 0.98 nM | 0.05 nM
C#CCCCON(C(=O)[C@@H](NC(=O)[C@H]1CCCCN1C)[C@@H](C)CC)[C@H](C[C@@H](OC(C)=O)c1nc(C(=O)NS(=O)(=O)Cc2ccc(N)cc2)cs1)C(C)C [Compound P49, (1R,3R)-1-(4-{[(4-aminophenyl)methanesulfonyl]carbamoyl}-1,3-thiazol-2-yl)-4-methyl-3-[(2S,3S)-3-methyl-2-{[(2R)-1-methylpiperidin-2-yl]formamido}-N-(pent-4-yn-1-yloxy)pentanamido]pentyl Acetate] | 163 nM | –
C#CCCCON(C(=O)[C@@H](NC(=O)[C@H]1CCCCN1C)[C@@H](C)CC)[C@H](C[C@@H](OC(C)=O)c1nc(C(=O)N[C@@H](Cc2ccc(NC(=O)CNC(=O)CN)cc2)CC(C)(C)C(=O)O)cs1)C(C)C [Compound P39, (4S)-4-({2-[(1R,3R)-1-(acetyloxy)-4-methyl-3-[(2S,3S)-3-methyl-2-{[(2R)-1-methylpiperidin-2-yl]formamido}-N-(pent-4-yn-1-yloxy)pentanamido]pentyl]-1,3-thiazol-4-yl}formamido)-5-{4-[2-(2-aminoacetamido)acetamido]phenyl}-2,2-dimethylpentanoic Acid] | 0.62 nM | –
CCCCCCN(C(=O)[C@@H](NC(=O)[C@@]1(C)CCCN1C)[C@@H](C)CC)[C@H](C[C@@H](OC(C)=O)c1nc(C(=O)N[C@@H](Cc2ccc(N)cc2)CC(C)(C)C(=O)O)cs1)C(C)C [Compound P19, (4S)-4-({2-[(1R,3R)-1-(acetyloxy)-3-[(2S,3S)-2-{[(2R)-1,2-dimethylpyrrolidin-2-yl]formamido}-N-hexyl-3-methylpentanamido]-4-methylpentyl]-1,3-thiazol-4-yl}formamido)-5-(4-aminophenyl)-2,2-dimethylpentanoic Acid] | 0.2 nM | 0.01 nM
C#CCCCON(C(=O)[C@@H](NC(=O)[C@H]1CCCCN1C)[C@@H](C)CC)[C@H](C[C@@H](OC(C)=O)c1nc(C(=O)N[C@@H](Cc2ccc(NC(=O)CO)cc2)CC(C)(C)C(=O)O)cs1)C(C)C [Compound P37, (4S)-4-({2-[(1R,3R)-1-(acetyloxy)-4-methyl-3-[(2S,3S)-3-methyl-2-{[(2R)-1-methylpiperidin-2-yl]formamido}-N-(pent-4-yn-1-yloxy)pentanamido]pentyl]-1,3-thiazol-4-yl}formamido)-5-[4-(2-hydroxyacetamido)phenyl]-2,2-dimethylpentanoic Acid] | 102 nM | –
CCCCCCN(C(=O)[C@@H](NC(=O)[C@H]1CCCCN1C)[C@@H](C)CC)[C@H](C[C@@H](NC(C)=O)c1nc(C(=O)N[C@@H](Cc2ccc(N)cc2)CC(C)(C)C(=O)O)cs1)C(C)C [Compound P9, (4S)-5-(4-aminophenyl)-4-({2-[(1R,3R)-1-acetamido-3-[(2S,3S)—N-hexyl-3-methyl-2-{[(2R)-1-methylpiperidin-2-yl]formamido}pentanamido]-4-methylpentyl]-1,3-thiazol-4-yl}formamido)-2,2-dimethylpentanoic Acid] | 2.07 nM | 0.3 nM
CCCCCCN(C(=O)[C@@H](NC(=O)[C@H]1CCCCN1)[C@@H](C)CC)[C@H](C[C@@H](OC(C)=O)c1nc(C(=O)N[C@@H](Cc2ccc(N)c(F)c2)CC(C)(C)C(=O)O)cs1)C(C)C [Compound P12, (4S)-4-({2-[(1R,3R)-1-(acetyloxy)-3-[(2S,3S)—N-hexyl-3-methyl-2-[(2R)-piperidin-2-ylformamido]pentanamido]-4-methylpentyl]-1,3-thiazol-4-yl}formamido)-5-(4-amino-3-fluorophenyl)-2,2-dimethylpentanoic Acid] | 0.34 nM | 0.03 nM
CCCCCCN(C(=O)[C@@H](NC(=O)[C@H]1CCCCN1)[C@@H](C)CC)[C@H](C[C@@H](OCC)c1nc(C(=O)N[C@@H](Cc2ccc(N)cc2)CC(C)(C)C(=O)O)cs1)C(C)C [Compound P20, (4S)-5-(4-aminophenyl)-4-({2-[(1R,3R)-1-ethoxy-3-[(2S,3S)—N-hexyl-3-methyl-2-[(2R)-piperidin-2-ylformamido]pentanamido]-4-methylpentyl]-1,3-thiazol-4-yl}formamido)-2,2-dimethylpentanoic Acid] | 6.97 nM | 0.52 nM
CCCCCCN(C(=O)[C@@H](NC(=O)[C@H]1CCCCN1C)[C@@H](C)CC)[C@H](C[C@@H](OC(C)=O)c1nc(C(=O)N[C@@H](Cc2ccc(N)cc2)CC(C)(C)C(=O)O)cs1)C(C)C [Compound P7, (4S)-4-({2-[(1R,3R)-1-(acetyloxy)-3-[(2S,3S)—N-hexyl-3-methyl-2-{[(2R)-1-methylpiperidin-2-yl]formamido}pentanamido]-4-methylpentyl]-1,3-thiazol-4-yl}formamido)-5-(4-aminophenyl)-2,2-dimethylpentanoic Acid] | 0.02 nM | 0.02 nM
C#CCCCON(C(=O)[C@@H](NC(=O)[C@H]1CCCCN1C)[C@@H](C)CC)[C@H](C[C@@H](OC(C)=O)c1nc(C(=O)N[C@@H](Cc2ccc(N)cc2)CC(C)(C)C(=O)O)cs1)C(C)C [Compound P34, (4S)-4-({2-[(1R,3R)-1-(acetyloxy)-4-methyl-3-[(2S,3S)-3-methyl-2-{[(2R)-1-methylpiperidin-2-yl]formamido}-N-(pent-4-yn-1-yloxy)pentanamido]pentyl]-1,3-thiazol-4-yl}formamido)-5-(4-aminophenyl)-2,2-dimethylpentanoic Acid] | 0.41 nM | 0.24 nM
CCCCCCN(C(=O)[C@@H](NC(=O)[C@@]1(C)CCCN1)[C@@H](C)CC)[C@H](C[C@@H](OC(C)=O)c1nc(C(=O)N[C@@H](Cc2ccc(O)cc2)CC(C)(C)C(=O)O)cs1)C(C)C [Compound P22, (4S)-4-({2-[(1R,3R)-1-(acetyloxy)-3-[(2S,3S)—N-hexyl-3-methyl-2-{[(2R)-2-methylpyrrolidin-2-yl]formamido}pentanamido]-4-methylpentyl]-1,3-thiazol-4-yl}formamido)-5-(4-hydroxyphenyl)-2,2-dimethylpentanoic Acid] | 0.27 nM | 0.08 nM
C#CCCCON(C(=O)[C@@H](NC(=O)[C@@]1(C)CCCN1)[C@@H](C)CC)[C@H](C[C@@H](OC(C)=O)c1nc(C(=O)N[C@@H](Cc2ccc(N)c(F)c2)CC(C)(C)C(=O)O)cs1)C(C)C [Compound P35, (4S)-4-({2-[(1R,3R)-1-(acetyloxy)-4-methyl-3-[(2S,3S)-3-methyl-2-{[(2R)-2-methylpyrrolidin-2-yl]formamido}-N-(pent-4-yn-1-yloxy)pentanamido]pentyl]-1,3-thiazol-4-yl}formamido)-5-(4-amino-3-fluorophenyl)-2,2-dimethylpentanoic Acid] | 4.87 nM | –
CCCCCCN(C(=O)[C@@H](NC(=O)[C@H]1CCCCN1C)[C@@H](C)CC)[C@H](C[C@@H](O)c1nc(C(=O)N[C@@H](Cc2ccc(N)cc2)CC(C)(C)C(=O)O)cs1)C(C)C [Compound P6, (4S)-5-(4-aminophenyl)-4-({2-[(1R,3R)-3-[(2S,3S)—N-hexyl-3-methyl-2-{[(2R)-1-methylpiperidin-2-yl]formamido}pentanamido]-1-hydroxy-4-methylpentyl]-1,3-thiazol-4-yl}formamido)-2,2-dimethylpentanoic Acid] | 16.3 nM | 0.78 nM
CCCCCCN(C(=O)[C@@H](NC(=O)[C@H]1CCCCN1C)[C@@H](C)CC)[C@H](C[C@@H](OC(=O)NCCN)c1nc(C(=O)N[C@@H](Cc2ccc(N)c(F)c2)CC(C)(C)C(=O)O)cs1)C(C)C [Compound P5, (4S)-5-(4-amino-3-fluorophenyl)-4-({2-[(1R,3R)-1-{[(2-aminoethyl)carbamoyl]oxy}-3-[(2S,3S)—N-hexyl-3-methyl-2-{[(2R)-1-methylpiperidin-2-yl]formamido}pentanamido]-4-methylpentyl]-1,3-thiazol-4-yl}formamido)-2,2-dimethylpentanoic Acid] | 38.6 nM | 4.44 nM
